From patent US6495570B2, “Combination drug therapy for glycolipid storage diseases” (G. D. Searle & Co., priority 1999, dated 2002)
“And” between values parts separate entries of the source, which are not always exact repeats. Equal values may be shown once.

Experiments:
[1] = test system: glycolipid biosynthesis in human myeloid (HL-60) cells; assay: Inhibition of glycolipid biosynthesis in HL-60 cells (radiolabelled palmitic acid, TLC, scanning densitometry); format: cell-based; conditions: for IC50: Homo sapiens, range quoted for variability of the radiolabelled products, read-out: IC50, inhibition of glycolipids (glucosylceramide and lactosylceramide bands)
Experimental: (§1) Cells were cultured for four days in the presence of radiolabelled palmitic acid and the following concentrations of compound:
(§2) After extraction the radioactively labelled glycolipids were separated by TLC and visualized by radioautography. NB-DNJ is N-butyl-DNJ. NN-DNJ is N-nonyl-DNJ.
(§3) Chinese Hamster Ovary (CHO) cells and human myeloid (HL-60) cells grown in the presence of varying concentrations of inhibitor in addition to a precursor (radiolabelled palmitic acid) of glycolipid biosynthesis were treated with solvents to extract the glycolipids by the procedure described by Platt et al., J. Biol. Chem. 269, 8362-8365 (1994).
(§4) The radiolabelled lipids were separated by TLC (FIG. 1) and bands corresponding to glucosylceramide and lactosylceramide were quantitated by scanning densitometry to estimate the reduction in glycolipid biosynthesis.
(§5) Table 1. […] Radiolabelled glucosylceramide and lactosylceramide bands from FIG. 1 were quantitated by scanning densitometry and the percentage of control (no treatment, track a, FIG. 1) expressed in comparison to compound dose. From the linear curve, an IC50 value was obtained. A range of values is quoted to represent variability of the radiolabelled products.

[2] = Organ distribution of radiolabelled compound after oral gavage in the normal mouse; format: in vivo
Experimental: Mouse body fluids and organs were collected for different times (30, 60, 90 minutes) after gavage with radiolabelled compound. Radioactivity in each sample was determined and expressed as a percentage of radioactivity recovered. Solid bars, NN-DNJ, hatched bars, NB-DNJ.
Further evidence that longer alkyl chains are taken up-much better than the shorter alkyl chains has been obtained by in vivo studies with mouse.
Table 2. Recovery of radiolabelled compounds after administration in the normal mouse. Mouse body fluids and organs were collected at different times after gavage with radiolabelled compound. Radioactivity in each sample was determined and expressed as a percentage of radioactivity recovered (data from FIG. 5).

[3] = cited from earlier work
[4] = mice, oral 4800 mg/Kg/day; cited from earlier work
[5] = test system: human immunodeficiency virus (HIV); conditions: cited from earlier work
[6] = test system: glycolipid biosynthesis in Chinese hamster ovary (CHO) cells; assay: Inhibition of glycolipid biosynthesis in CHO cells (radiolabelled palmitic acid, TLC, scanning densitometry); format: cell-based; conditions: for IC50: Cricetulus griseus, range quoted for variability of the radiolabelled products, read-out: IC50, inhibition of glycolipids (glucosylceramide and lactosylceramide bands)
Experimental: as §1, §2, §3, §4, §5

glycolipid biosynthesis = conditions: cited from earlier work
[7] = test system: CHO, MDBK and HepG2 cells; assay: Uptake of radiolabelled compound into cultured cells (cell-associated radioactivity); format: in vitro ADME; conditions: incubated up to 24 hours
Experimental: FIG. 5 is a bar graph of estimated radioactivity. […] Cells were extensively washed and acid precipitated. After solution in NaOH, cell associated radioactivity was determined as a percentage of radiolabelled compound added.
The activity is explained by the differential uptake into cells.

Hepatitis B virus (HBV) = conditions: based on inhibition of alpha-glucosidases in the ER; cited from earlier work

| SMILES | % recovered, Brain ([2]; 30 min after gavage, mouse) [%] | % recovered, Liver ([2]; 30 min after gavage, mouse) [%] | % recovered, Brain ([2]; 60 min after gavage, mouse) [%] | % recovered, Liver ([2]; 60 min after gavage, mouse) [%] | % recovered, Brain ([2]; 90 min after gavage, mouse) [%] | % recovered, Liver ([2]; 90 min after gavage, mouse) [%] | IC50 [6] [nM] | dose required for activity against glycolipid biosynthesis (glycolipid biosynthesis) [mg/mL] | IC50 ([1]; HL-60 cells) [nM] | other results |
| --- | --- | --- | --- | --- | --- | --- | --- | --- | --- | --- |
| CCCCCCCCCCN1C[C@H](O)[C@@H](O)[C@H](O)[C@H]1CO [N-decyl-DNJ] | – | – | – | – | – | – | – | – | – | inhibition at times lower concentrations than N-butyl-DNJ ([1]; HL-60 cell-based assay): 50 times |
| CCCCN1C[C@H](O)[C@@H](O)[C@H](O)[C@H]1CO [N-butyl-DNJ, N-butyl-1,5-dideoxy-1,5-imino-D-glucitol] | 0.2 | 8.5 | 0.1 | 2.8 | 0.03 | 0.9 | 25000 to 50000 | 0.01 to 0.1 | 1800 to 7300 | time of treatment to steady-state plasma concentration ([3]; clinical trial): 4-6 weeks; peak plasma concentration ([3]; oral, 100 mg three times daily, listed as ND-DNJ): 6.8 μM and 1.5 μg/ml; stable serum concentration [4]: 50 µM; effectiveness as an inhibitor of HIV versus the N-ethyl analog [5]: three log orders more effective; effectiveness as an inhibitor of HIV versus the N-methyl analog [5]: more than two log orders more effective |
| CCCCCCCCCN1C[C@H](O)[C@@H](O)[C@H](O)[C@H]1CO [N-nonyl-DNJ, N-nonyl-1,5-dideoxy-1,5-imino-D-glucitol] | 0.4 | 27.1 | 0.3 | 12.6 | 0.4 | 13.5 | 2000 to 2700 | – | 20 to 400 | radioactivity recovered in the liver and brain, higher than N-butyl-DNJ ([2]; after 90 min, oral gavage, mouse): 10 fold; uptake into the brain versus N-butyl-DNJ ([2]; tests of organ distribution): five times better; inhibition of glycolipid biosynthesis, better than N-butyl-DNJ at equivalent concentrations [6]: about ten- to about twenty-fold better; cell-associated radioactivity, increase versus N-butyl-DNJ [7]: 3.5-5.0 fold; inhibition of the Hepatitis B virus (HBV) (Hepatitis B virus (HBV)): effective; inhibition of glycolipid biosynthesis, better than N-butyl-DNJ at equivalent concentrations ([1]; HL-60 cells): about four hundred times better |
| CN1C[C@H](O)[C@@H](O)[C@H](O)[C@H]1CO [N-methyl analog] | – | – | – | – | – | – | – | – | – | activity against glycolipid biosynthesis (glycolipid biosynthesis): inactive |
| CCCCCCN1C[C@H](O)[C@@H](O)[C@H](O)[C@H]1CO [N-hexyl derivative of DNJ] | – | – | – | – | – | – | – | 0.2 | – | – |
